Source: ChEMBL document CHEMBL4814041, “Anti-fibrotic effects of brevilin A in hepatic fibrosis via inhibiting the STAT3 signaling pathway” (Bioorg Med Chem Lett, 2021)
Values after ≈ are worked out from the molar mass of the structure shown. Active and inactive are the calls of the source. No cut-off for these calls is given here.

Experiments:
[1] = Anticancer activity against human nasopharyngeal carcinoma cells measured upto 72 hrs by MTT assay; assay type: functional; conditions: Nasopharyngeal carcinoma cell line
LX-2 [2] = experiment: Anti-fibrotic activity against human LX2 cells assessed as reduction in TGF-1beta-induced alpha-SMA mRNA expression at 0.25 to 1 ug/ml by qPCR analysis; assay type: functional, cell-based; conditions: dose 0.25-1 µg/ml
LX-2 [3] = experiment: Anti-fibrotic activity against human LX2 cells assessed as reduction in TGF-1beta-induced collagen mRNA expression at 0.25 to 1 ug/ml by qPCR analysis; assay type: functional, cell-based; conditions: dose 0.25-1 µg/ml
[4] = biological target: Signal transducer and activator of transcription 3 (Homo sapiens) (UniProt P40763); experiment: Inhibition of STAT3 in human LX2 cells assessed as reduction in TGF-1beta-induced CTGF expression at 0.25 to 1 ug/ml by Western blot analysis; assay type: cell-based; conditions: dose 0.25-1 µg/ml
Chain of Signal transducer and activator of transcription 3 (Homo sapiens) (P40763 whole entry): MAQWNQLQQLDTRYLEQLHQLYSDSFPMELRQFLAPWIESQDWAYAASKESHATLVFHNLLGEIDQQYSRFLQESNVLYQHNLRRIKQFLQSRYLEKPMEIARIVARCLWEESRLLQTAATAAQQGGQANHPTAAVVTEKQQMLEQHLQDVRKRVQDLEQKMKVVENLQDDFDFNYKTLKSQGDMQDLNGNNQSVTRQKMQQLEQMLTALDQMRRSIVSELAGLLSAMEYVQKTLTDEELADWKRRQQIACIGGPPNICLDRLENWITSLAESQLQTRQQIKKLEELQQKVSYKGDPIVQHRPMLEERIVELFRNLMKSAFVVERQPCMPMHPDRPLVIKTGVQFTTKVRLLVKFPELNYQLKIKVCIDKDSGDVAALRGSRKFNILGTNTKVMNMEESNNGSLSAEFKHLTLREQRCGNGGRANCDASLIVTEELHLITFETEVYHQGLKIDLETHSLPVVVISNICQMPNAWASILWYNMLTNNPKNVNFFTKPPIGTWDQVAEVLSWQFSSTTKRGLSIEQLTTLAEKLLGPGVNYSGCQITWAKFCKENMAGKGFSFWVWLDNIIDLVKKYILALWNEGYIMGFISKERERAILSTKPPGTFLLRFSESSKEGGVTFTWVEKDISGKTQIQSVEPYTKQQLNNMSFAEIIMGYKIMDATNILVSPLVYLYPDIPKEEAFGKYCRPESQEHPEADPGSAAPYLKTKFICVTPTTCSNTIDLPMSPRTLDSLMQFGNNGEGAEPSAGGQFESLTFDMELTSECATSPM

Influenza A virus = experiment: Antiviral activity against influenza A virus infected in MDCK cells assessed as reduction in plaque number measured after 48 to 72 hrs; assay type: functional, organism-based
LX-2 [5] = experiment: Anti-fibrotic activity against human LX2 cells assessed as reduction in TGF-1beta-induced fibronectin mRNA expression at 0.25 to 1 ug/ml by qPCR analysis; assay type: functional, cell-based; conditions: dose 0.25-1 µg/ml
[6] = biological target: Signal transducer and activator of transcription 3 (Homo sapiens) (UniProt P40763); experiment: Inhibition of STAT3 in human LX2 cells assessed as reduction in TGF-1beta-induced STAT3 phosphorylation at 0.25 to 1 ug/ml by Western blot analysis; assay type: cell-based; conditions: dose 0.25-1 µg/ml

SMILES: C/C=C(/C)C(=O)O[C@H]1[C@@H]2[C@H](C)C(=O)O[C@@H]2C[C@@H](C)[C@@H]2C=CC(=O)[C@]21C [BREVILIN A]
- IC50 [1]: 3.46 µg/mL (≈ 9.99 µM)
- Activity (LX-2 [2]): Active
- Activity (LX-2 [3]): Active
- inhibition [4]: Active
- EC50 (Influenza A virus): 1.02 µg/mL (≈ 2.94 µM)
- Activity (LX-2 [5]): Active
- inhibition [6]: Active
